# Laboratory results as given in PubChem BioAssay (NCI).
#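 Test compounds were applied to cells in 96-well plates for 48 hours at 5 doses. Abbreviation: GI50, concentration required for 50% inhibition of growth. TGI: total growth inhibition.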
# How the values were obtained:
# Assay in all cases: NCI anticancer screen, dose series, 48 h
# HL-60(TB) leukemia = system: HL-60(TB) leukemia
# SN12C renal = system: SN12C renal
# A549 NSCLC = system: A549 NSCLC
# RPMI-8226 leukemia = system: RPMI-8226 leukemia
# ACHN renal = system: ACHN renal
# MDA-MB-435 = system: MDA-MB-435
# PC-3 prostate = system: PC-3 prostate
# A498 renal = system: A498 renal
# T-47D breast = system: T-47D breast
# HOP-62 NSCLC = system: HOP-62 NSCLC
# OVCAR-3 ovarian = system: OVCAR-3 ovarian
# UO-31 renal = system: UO-31 renal
# SK-MEL-2 melanoma = system: SK-MEL-2 melanoma
# SW-620 colon = system: SW-620 colon
# HOP-92 NSCLC = system: HOP-92 NSCLC
# OVCAR-5 ovarian = system: OVCAR-5 ovarian
# NCI-H522 lung = system: NCI-H522 lung
# HS 578T breast = system: HS 578T breast
# CAKI-1 renal = system: CAKI-1 renal
# NCI-H460 lung = system: NCI-H460 lung
# 786-0 renal = system: 786-0 renal
# MCF7 breast = system: MCF7 breast
# SK-MEL-28 melanoma = system: SK-MEL-28 melanoma
# HT29 colon = system: HT29 colon
# NCI-H23 lung = system: NCI-H23 lung
# SF-268 CNS = system: SF-268 CNS
# IGROV1 ovarian = system: IGROV1 ovarian
# COLO 205 colon = system: COLO 205 colon
# SR leukemia = system: SR leukemia
# MDA-MB-231 breast = system: MDA-MB-231 breast
# RXF 393 renal = system: RXF 393 renal
# DU-145 prostate = system: DU-145 prostate
# LOX IMVI melanoma = system: LOX IMVI melanoma
# OVCAR-8 ovarian = system: OVCAR-8 ovarian
# TK-10 renal = system: TK-10 renal
# HCC-2998 colon = system: HCC-2998 colon
# HCT-116 colon = system: HCT-116 colon
# SF-539 CNS = system: SF-539 CNS
# CCRF-CEM leukemia = system: CCRF-CEM leukemia
# K-562 leukemia = system: K-562 leukemia
# NCI/ADR-RES ovarian = system: NCI/ADR-RES ovarian
# UACC-257 melanoma = system: UACC-257 melanoma
# SNB-19 CNS = system: SNB-19 CNS
# MALME-3M melanoma = system: MALME-3M melanoma
# M14 melanoma = system: M14 melanoma
# BT-549 breast = system: BT-549 breast
# NCI-H226 lung = system: NCI-H226 lung
# SK-OV-3 ovarian = system: SK-OV-3 ovarian
# SF-295 CNS = system: SF-295 CNS
# KM12 colon = system: KM12 colon
# HCT-15 colon = system: HCT-15 colon
# OVCAR-4 ovarian = system: OVCAR-4 ovarian
# SNB-75 CNS = system: SNB-75 CNS
# MOLT-4 leukemia = system: MOLT-4 leukemia
# U251 CNS = system: U251 CNS
# UACC-62 melanoma = system: UACC-62 melanoma
# SK-MEL-5 melanoma = system: SK-MEL-5 melanoma
# EKVX NSCLC = system: EKVX NSCLC
smiles,measurement,setting,value
COc1cc(/C=C\c2cc(/C=C\c3ccc(O)c(OC)c3)n(C(=O)COc3ccccc3)n2)ccc1O,GI50,HL-60(TB) leukemia,282 nM
same,TGI,HL-60(TB) leukemia,901 nM
same,GI50,SN12C renal,799 nM
same,TGI,SN12C renal,7660 nM
same,GI50,A549 NSCLC,2420 nM
same,TGI,A549 NSCLC,11100 nM
same,GI50,RPMI-8226 leukemia,377 nM
same,TGI,RPMI-8226 leukemia,2360 nM
same,GI50,ACHN renal,490 nM
same,TGI,ACHN renal,11100 nM
same,GI50,MDA-MB-435,210 nM
same,TGI,MDA-MB-435,492 nM
same,GI50,PC-3 prostate,1600 nM
same,TGI,PC-3 prostate,> 100000 nM
same,GI50,A498 renal,2680 nM
same,TGI,A498 renal,6490 nM
same,GI50,T-47D breast,1620 nM
same,TGI,T-47D breast,6950 nM
same,GI50,HOP-62 NSCLC,1080 nM
same,TGI,HOP-62 NSCLC,4950 nM
same,GI50,OVCAR-3 ovarian,552 nM
same,TGI,OVCAR-3 ovarian,2770 nM
same,GI50,UO-31 renal,302 nM
same,TGI,UO-31 renal,4120 nM
same,GI50,SK-MEL-2 melanoma,661 nM
same,TGI,SK-MEL-2 melanoma,3560 nM
same,GI50,SW-620 colon,608 nM
same,TGI,SW-620 colon,9020 nM
same,GI50,HOP-92 NSCLC,3130 nM
same,TGI,HOP-92 NSCLC,20400 nM
same,GI50,OVCAR-5 ovarian,2750 nM
same,TGI,OVCAR-5 ovarian,6810 nM
same,GI50,NCI-H522 lung,304 nM
same,TGI,NCI-H522 lung,970 nM
same,GI50,HS 578T breast,1120 nM
same,TGI,HS 578T breast,6840 nM
same,GI50,CAKI-1 renal,657 nM
same,TGI,CAKI-1 renal,12400 nM
same,GI50,NCI-H460 lung,1250 nM
same,TGI,NCI-H460 lung,10200 nM
same,GI50,786-0 renal,1060 nM
same,TGI,786-0 renal,3580 nM
same,GI50,MCF7 breast,343 nM
same,TGI,MCF7 breast,2830 nM
same,GI50,SK-MEL-28 melanoma,1120 nM
same,TGI,SK-MEL-28 melanoma,10400 nM
same,GI50,HT29 colon,2670 nM
same,TGI,HT29 colon,6350 nM
same,GI50,NCI-H23 lung,1330 nM
same,TGI,NCI-H23 lung,6640 nM
same,GI50,SF-268 CNS,651 nM
same,TGI,SF-268 CNS,5650 nM
same,GI50,IGROV1 ovarian,919 nM
same,TGI,IGROV1 ovarian,8000 nM
same,GI50,COLO 205 colon,1960 nM
same,TGI,COLO 205 colon,3950 nM
same,GI50,SR leukemia,318 nM
same,TGI,SR leukemia,2460 nM
same,GI50,MDA-MB-231 breast,2380 nM
same,TGI,MDA-MB-231 breast,15300 nM
same,GI50,RXF 393 renal,1000 nM
same,TGI,RXF 393 renal,2520 nM
same,GI50,DU-145 prostate,1370 nM
same,TGI,DU-145 prostate,8060 nM
same,GI50,LOX IMVI melanoma,550 nM
same,TGI,LOX IMVI melanoma,3290 nM
same,GI50,OVCAR-8 ovarian,2520 nM
same,TGI,OVCAR-8 ovarian,8570 nM
same,GI50,TK-10 renal,2910 nM
same,TGI,TK-10 renal,10900 nM
same,GI50,HCC-2998 colon,2270 nM
same,TGI,HCC-2998 colon,10200 nM
same,GI50,HCT-116 colon,386 nM
same,TGI,HCT-116 colon,10000 nM
same,GI50,SF-539 CNS,354 nM
same,TGI,SF-539 CNS,2470 nM
same,GI50,CCRF-CEM leukemia,281 nM
same,TGI,CCRF-CEM leukemia,1340 nM
same,GI50,K-562 leukemia,366 nM
same,TGI,K-562 leukemia,10800 nM
same,GI50,NCI/ADR-RES ovarian,559 nM
same,TGI,NCI/ADR-RES ovarian,11700 nM
same,GI50,UACC-257 melanoma,2210 nM
same,TGI,UACC-257 melanoma,7340 nM
same,GI50,SNB-19 CNS,1360 nM
same,TGI,SNB-19 CNS,9590 nM
same,GI50,MALME-3M melanoma,585 nM
same,TGI,MALME-3M melanoma,3710 nM
same,GI50,M14 melanoma,343 nM
same,TGI,M14 melanoma,2680 nM
same,GI50,BT-549 breast,571 nM
same,TGI,BT-549 breast,4030 nM
same,GI50,NCI-H226 lung,3150 nM
same,TGI,NCI-H226 lung,9940 nM
same,GI50,SK-OV-3 ovarian,1530 nM
same,TGI,SK-OV-3 ovarian,3450 nM
same,GI50,SF-295 CNS,2780 nM
same,TGI,SF-295 CNS,7700 nM
same,GI50,KM12 colon,500 nM
same,TGI,KM12 colon,6810 nM
same,GI50,HCT-15 colon,416 nM
same,TGI,HCT-15 colon,7960 nM
same,GI50,OVCAR-4 ovarian,845 nM
same,TGI,OVCAR-4 ovarian,12300 nM
same,GI50,SNB-75 CNS,822 nM
same,TGI,SNB-75 CNS,5300 nM
same,GI50,MOLT-4 leukemia,368 nM
same,TGI,MOLT-4 leukemia,3260 nM
same,GI50,U251 CNS,564 nM
same,TGI,U251 CNS,5960 nM
same,GI50,UACC-62 melanoma,326 nM
same,TGI,UACC-62 melanoma,1270 nM
same,GI50,SK-MEL-5 melanoma,834 nM
same,TGI,SK-MEL-5 melanoma,3520 nM
same,GI50,EKVX NSCLC,2530 nM
same,TGI,EKVX NSCLC,10300 nM
